Test results taken from paper PMC6151428, “Discovery of Novel N-Substituted Prolinamido Indazoles as Potent Rho Kinase Inhibitors and Vasorelaxation Agents” (Molecules : A Journal of Synthetic Chemistry and Natural …, 2017).

Tests used:
ROCK I = biological target: T1, ROCK I (Homo sapiens, UniProt Q13464); experiment: Rho kinase activity assay (Cyclex CY-1160 kit); format: biochemical; conditions: for IC50: a: means of multiple experiments (N = 4), errors within 30% of the mean, b: single determinations, read-out: IC50 against ROCK I; for ROCK I activity compared in words: comparison with DL0805 or between series; for fold more active than DL0805 (ROCK I IC50): relative to DL0805 IC50 6.7 μM
T1 construct: purchased Cyclex, Nagoya, Japan CY-1160
T1 sequence (Q13464 whole entry, species assumed): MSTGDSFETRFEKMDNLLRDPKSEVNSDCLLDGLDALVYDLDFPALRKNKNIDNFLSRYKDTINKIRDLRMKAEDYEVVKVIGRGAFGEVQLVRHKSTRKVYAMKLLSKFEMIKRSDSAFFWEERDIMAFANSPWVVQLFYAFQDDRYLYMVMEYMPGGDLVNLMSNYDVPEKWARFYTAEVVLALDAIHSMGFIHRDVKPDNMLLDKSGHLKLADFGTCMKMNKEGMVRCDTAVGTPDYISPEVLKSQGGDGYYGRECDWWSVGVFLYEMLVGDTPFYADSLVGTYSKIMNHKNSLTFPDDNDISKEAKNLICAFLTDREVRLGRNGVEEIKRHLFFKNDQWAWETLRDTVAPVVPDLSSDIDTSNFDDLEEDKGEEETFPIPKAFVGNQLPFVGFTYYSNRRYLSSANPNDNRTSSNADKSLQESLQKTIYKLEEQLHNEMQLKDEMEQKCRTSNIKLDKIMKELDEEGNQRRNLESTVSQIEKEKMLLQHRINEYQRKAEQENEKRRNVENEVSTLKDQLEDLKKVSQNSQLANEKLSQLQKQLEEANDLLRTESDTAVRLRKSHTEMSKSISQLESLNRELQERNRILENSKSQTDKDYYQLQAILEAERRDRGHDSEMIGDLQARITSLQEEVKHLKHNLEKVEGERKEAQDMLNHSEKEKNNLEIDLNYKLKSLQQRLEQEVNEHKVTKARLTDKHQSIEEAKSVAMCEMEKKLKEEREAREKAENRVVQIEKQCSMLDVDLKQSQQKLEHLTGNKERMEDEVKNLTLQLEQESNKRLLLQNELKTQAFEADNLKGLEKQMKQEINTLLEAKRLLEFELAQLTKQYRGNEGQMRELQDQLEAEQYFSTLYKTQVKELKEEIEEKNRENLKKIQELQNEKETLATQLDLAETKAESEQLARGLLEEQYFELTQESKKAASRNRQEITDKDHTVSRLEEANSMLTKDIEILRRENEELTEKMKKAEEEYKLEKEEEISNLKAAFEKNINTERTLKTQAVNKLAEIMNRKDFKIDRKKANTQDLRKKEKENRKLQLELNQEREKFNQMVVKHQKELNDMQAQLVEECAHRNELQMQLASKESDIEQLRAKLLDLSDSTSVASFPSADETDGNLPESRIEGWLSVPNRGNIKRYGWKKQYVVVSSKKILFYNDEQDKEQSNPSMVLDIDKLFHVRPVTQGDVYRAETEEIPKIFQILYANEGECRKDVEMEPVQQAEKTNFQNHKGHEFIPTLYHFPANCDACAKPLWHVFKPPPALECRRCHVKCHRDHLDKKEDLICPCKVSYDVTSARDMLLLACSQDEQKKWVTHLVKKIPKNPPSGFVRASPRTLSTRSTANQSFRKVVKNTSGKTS
Description: Briefly, the compounds at 20 μM were pre-incubated in a system wherein ROCK I (0.02 ng/μL) phosphorylates the kinase substrate’s myosin-binding subunit (MBS) pre-absorbed onto the microplate in the presence of Mg^2+ and ATP. Then, the system was washed after incubation at 30 °C for 30 min. 100 μL of horseradish peroxidase-conjugated anti-AF20 antibody was added to the wells and then incubated for 30 min at room temperature. The reaction system was then incubated with the substrate tetra-methylbenzidine (TMB), which can be catalyzed from a colorless solution to a blue solution. The absorbance was measured at a wavelength of 450 nm on a microplate reader. The color reflects the relative level of ROCK I activity. The inhibitory rates of the compounds on ROCK I were obtained from OD 450 nm and the IC50 values were calculated by nonlinear regression.

rat aortic rings [1] = experiment: Vasorelaxant activity test, high-potassium model; conditions: rat aortic rings constricted with high K+ (60 mmol/L); a: mean N = 6; b: single determination; -- = No activity
Excerpt: (§1) Abnormalities in the Rho/ROCK signaling pathway are associated with various cardiovascular diseases, especially hypertension. The inhibition of the Rho/ROCK pathway can cause the vessels to relax. The norepinephrine (NE)- or potassium chloride (KCl)-induced model of the rat aortic ring can trigger sustained vessel contraction and is usually used to evaluate vasorelaxant activity. DL0805 has shown vasorelaxant activity. Therefore, the nine compounds with significant inhibition against ROCK I were further tested for their vasorelaxant activity in rat aortic rings in both the high-potassium and NE models (Table 3). […] The potent active compound 4b with excellent activity has been further evaluated, and further pharmacokinetic and safety evaluations are in progress.
(§2) Male Sprague-Dawley rats weighing 240–280 g (Vital River Laboratories, Beijing, China) were maintained in a 12-h light/dark cycle at 24 °C in a relative humidity of 60% room, and received food and water ad libitum. The animal care and handling were performed in accordance with the Guide for the Care and Use of Laboratory Animals published by the US National Institutes of Health and the Laboratories Institutional Animal Care and Use Committee of the Chinese Academy of Medical Science and Peking Union Medical College (ethic approval number: 00001012).
(§3) The vasorelaxant activity assay was performed as described previously. Briefly, the descending thoracic aorta was isolated after rats were euthanized by cervical dislocation. Then, the aorta was cut into ring segments (3–4 mm in length). The endothelial layer of the aorta was destroyed by gently rubbing the luminal surface with a moist cotton swab when necessary. Two stainless-steel triangles were inserted into the lumen of each ring. One triangle was fixed, and the other attached to a force transducer. Changes in isometric force were recorded on a BIOPAC polygraph (MP100WSW, Biopac Systems, Inc, Goleta, CA, USA). The rings were mounted in organ baths containing 10 mL Krebs-Henseleit (K-H) buffer with the following composition (mM): NaCl 120, KCl 4.8, MgSO4 1.4, KH2PO4 1.2, glucose 11.0, CaCl2 2.5, NaHCO3 25.0 and EDTA 0.01. The K-H buffer was continuously bubbled with 95% O2/5% CO2 at 37 °C. Rings were allowed to equilibrate for 60 min at a resting tension of 1.2 g with changes of buffer every 20 min.
(§4) After the equilibration period, the aortic rings were constricted with a high K^+ (60 mM) K-H solution to stimulate the tissue and to test its availability. Then, the rings were washed with normal K-H buffer to restore the basic tension of 1.2 g. The aortic rings were then stimulated with a high K^+ (60 mmol/L) K-H buffer ornorepinephrine (1 μM) to evaluate the vasorelaxant effects of the compounds. When the contraction reached the platform, compounds were added to the bath in batches at 5-min intervals to reach the accumulative concentrations of 1, 2, 5, 10, 25 and 50 μM. The tension of vessels was recorded and nonlinear regression was used to calculate the EC50 values.

rat aortic rings [2] = experiment: Vasorelaxant activity test, NE model; conditions: rat aortic rings constricted with norepinephrine (1 μM); a: mean N = 6; b: single determination; -- = No activity
Excerpt: as §1, §2, §3, §4

rat aortic rings [3] = experiment: Ex-vivo vasorelaxant activity in rat aortic rings (model not specified)
Excerpt: as §1
The vasorelaxant activity assay was performed as described previously. Briefly, the descending thoracic aorta was isolated after rats were euthanized by cervical dislocation. Then, the aorta was cut into ring segments (3–4 mm in length). […] Changes in isometric force were recorded on a BIOPAC polygraph (MP100WSW, Biopac Systems, Inc, Goleta, CA, USA). […]
After the equilibration period, the aortic rings were constricted with a high K^+ (60 mM) K-H solution to stimulate the tissue and to test its availability. […] The tension of vessels was recorded and nonlinear regression was used to calculate the EC50 values.

[4] = compound concentration 20 μM, single determinations

Row | Compound | IC50 (ROCK I) | inhibition at 20 µM (ROCK I; [4]) | EC50 (rat aortic rings [1]) | EC50 (rat aortic rings [2]) | melting point | ROCK I activity compared in words (ROCK I) | fold more active than DL0805 (ROCK I IC50) (ROCK I) | vasorelaxant activity compared with fasudil (rat aortic rings [3]) | % Inhibition of ROCK I (ROCK I; [4])
1 | Cc1ccc(C(=O)N2CCC(C(=O)Nc3ccc4[nH]ncc4c3)C2)cc1 (centres unmarked) [Compound 5b, N-(1H-Indazol-5-yl)-1-(4-methylbenzoyl)pyrrolidine-3-carboxamide] | 11.5 µM | 54.9% | 60.6 µM | 15.6 µM | 224 to 226 °C |  |  |  | 
2 | Cc1ccc(CN2CCC[C@H]2C(=O)Nc2ccc3[nH]ncc3c2)cc1 [Compound 2f, (S)-N-(1H-Indazol-5-yl)-1-(4-methylbenzyl)pyrrolidine-2-carboxamide] |  | 21.3% |  |  | 204 to 206 °C |  |  |  | 
3 | Cc1ccc(CN2CCC(C(=O)Nc3ccc4[nH]ncc4c3)C2)cc1 (centres unmarked) [Compound 4b, N-(1H-Indazol-5-yl)-1-(4-methylbenzyl)pyrrolidine-3-carboxamide] | 0.17 µM | 75.8% | 3.47 µM | 4.07 µM |  | activity profiles superior to DL0805 | 39 fold | comparable vasorelaxant activity to the approved drug fasudil | 
4 | O=C(Nc1ccc2[nH]ncc2c1)C1CCN(C(=O)c2ccc(Cl)cc2)C1 (centres unmarked) [Compound 5f, 1-(4-Chlorobenzoyl)-N-(1H-indazol-5-yl)pyrrolidine-3-carboxamide] | 7.26 µM | 55.2% | > 50 µM | > 50 µM | 225 to 227 °C |  |  |  | 
5 | O=C(Nc1ccc2[nH]ncc2c1)C1CCN(C(=O)c2ccc([N+](=O)[O-])cc2)C1 (centres unmarked) [Compound 5e, N-(1H-Indazol-5-yl)-1-(4-nitrobenzoyl)pyrrolidine-3-carboxamide] |  | 45.4% |  |  | 177 to 178 °C |  |  |  | 
6 | O=C(Nc1ccc2[nH]ncc2c1)C1CCN(C(=O)c2ccc(Br)cc2)C1 (centres unmarked) [Compound 5d, 1-(4-Bromobenzoyl)-N-(1H-indazol-5-yl)pyrrolidine-3-carboxamide] |  | 27.9% |  |  | 250 to 251 °C |  |  |  | 
7 | O=C(Nc1ccc2cn[nH]c2c1)C1CCCN1Cc1ccccc1 (centres unmarked) [Compound 3a, 1-Benzyl-N-(1H-indazol-6-yl)pyrrolidine-2-carboxamide] |  | 16% |  |  | 195 to 196 °C |  |  |  | 
8 | O=S(=O)(c1cccc2cnccc12)N1CCCNCC1 [fasudil, reference compound] |  |  | 5.47 µM | 4.65 µM |  |  |  |  | 
9 | O=C(Nc1ccc2[nH]ncc2c1)C1CCN(Cc2ccc(Br)cc2)C1 (centres unmarked) [Compound 4d, 1-(4-Bromobenzyl)-N-(1H-indazol-5-yl)pyrrolidine-3-carboxamide] | 0.51 µM | 62.5% | 58.1 µM | 46.8 µM | 235 to 236 °C | activity profiles superior to DL0805 |  |  | 
10 | Cc1ccc(CN2CCC[C@@H]2C(=O)Nc2ccc3[nH]ncc3c2)cc1 [Compound 2e, (R)-N-(1H-Indazol-5-yl)-1-(4-methylbenzyl)pyrrolidine-2-carboxamide] |  |  |  |  | 203 to 205 °C |  |  |  | 
11 | O=C(Nc1ccc2[nH]ncc2c1)C1CCCN1Cc1ccccc1 (centres unmarked) [Compound 2a, 1-Benzyl-N-(1H-indazol-5-yl)pyrrolidine-2-carboxamide] |  | 27.2% |  |  | 200 to 201 °C |  |  |  | 
12 | O=C(Nc1ccc2[nH]ncc2c1)[C@@H]1CCCN1Cc1ccccc1 [Compound 2c, (S)-1-Benzyl-N-(1H-indazol-5-yl)pyrrolidine-2-carboxamide] |  | 24.6% |  |  | 202 to 203 °C |  |  |  | 
13 | O=C(Nc1ccc2cn[nH]c2c1)[C@H]1CCCN1Cc1ccccc1 [Compound 3b, (R)-1-Benzyl-N-(1H-indazol-6-yl)pyrrolidine-2-carboxamide] |  | 15% |  |  | 192 to 193 °C |  |  |  | 
14 | COc1ccc(CN2CCC(C(=O)Nc3ccc4[nH]ncc4c3)C2)cc1 (centres unmarked) [Compound 4c, N-(1H-Indazol-5-yl)-1-(4-methoxybenzyl)pyrrolidine-3-carboxamide] | 1.86 µM | 53.3% | 5.8 µM | 5.57 µM |  | activity profiles superior to DL0805 |  |  | 
15 | O=C(Nc1ccc2cn[nH]c2c1)[C@@H]1CCCN1Cc1ccccc1 [Compound 3c, (S)-1-Benzyl-N-(1H-indazol-6-yl)pyrrolidine-2-carboxamide] |  | 23.7% |  |  | 195 to 197 °C |  |  |  | 
16 | Cc1ccc(CN2CCCC2C(=O)Nc2ccc3[nH]ncc3c2)cc1 (centres unmarked) [Compound 2d, N-(1H-Indazol-5-yl)-1-(4-methylbenzyl)pyrrolidine-2-carboxamide] |  | 26.6% |  |  | 200 to 202 °C |  |  |  | 
17 | O=C(Nc1ccc2[nH]ncc2c1)[C@H]1CCCN1Cc1ccccc1 [Compound 2b, (R)-1-Benzyl-N-(1H-indazol-5-yl)pyrrolidine-2-carboxamide] |  | 24.3% |  |  | 199 to 201 °C |  |  |  | 
18 | COc1ccc(C(=O)N2CCC(C(=O)Nc3ccc4[nH]ncc4c3)C2)cc1 (centres unmarked) [Compound 5c, N-(1H-Indazol-5-yl)-1-(4-methoxybenzoyl)pyrrolidine-3-carboxamide] |  | 19.1% |  |  | 242 to 244 °C |  |  |  | 
19 | O=C(Nc1ccc2[nH]ncc2c1)[C@@H]1CCN(Cc2ccccc2)C1 [Compound 4i, (R)-1-Benzyl-N-(1H-indazol-5-yl)pyrrolidine-3-carboxamide] | 7.32 µM | 73.9% | 6.02 µM | 11.5 µM | 203 to 204 °C |  |  |  | 
20 | O=C(Nc1ccc2[nH]ncc2c1)C1CCN(C(=O)c2ccccc2)C1 (centres unmarked) [Compound 5a, 1-Benzoyl-N-(1H-indazol-5-yl)pyrrolidine-3-carboxamide] |  | 42.5% |  |  | 211 to 213 °C |  |  |  | 
21 | O=C(Nc1ccc2[nH]ncc2c1)C1CCN(Cc2ccc(F)cc2)C1 (centres unmarked) [Compound 4g, 1-(4-Fluorobenzyl)-N-(1H-indazol-5-yl)pyrrolidine-3-carboxamide] | 1.41 µM | 63.8% | 19.5 µM | 8.91 µM | 202 to 203 °C | activity profiles superior to DL0805 |  |  | 
22 | N#Cc1ccc(CN2CCC(C(=O)Nc3ccc4[nH]ncc4c3)C2)cc1 (centres unmarked) [Compound 4f, 1-(4-Cyanobenzyl)-N-(1H-indazol-5-yl)pyrrolidine-3-carboxamide] |  | 24.5% |  |  | 202 to 204 °C |  |  |  | 
23 | N-(1H-Indazol-5-yl)-1-(4-methoxybenzyl)pyrrolidine-3-carboxamide [Compound 4e] |  |  |  |  |  |  |  |  | 44.7%
24 | O=C(Nc1ccc2[nH]ncc2c1)[C@H]1CCN(Cc2ccccc2)C1 [Compound 4h, (S)-1-Benzyl-N-(1H-indazol-5-yl)pyrrolidine-3-carboxamide] | 0.42 µM | 54.8% | 32.4 µM | > 50 µM | 203 to 204 °C | activity profiles superior to DL0805 |  |  | 
25 | O=C(Nc1ccc2[nH]ncc2c1)C1CCN(Cc2ccccc2)C1 (centres unmarked) [Compound 4a, 1-Benzyl-N-(1H-indazol-5-yl)pyrrolidine-3-carboxamide] | 0.27 µM | 73.2% | 4 µM | 5.62 µM | 203 to 204 °C | activity profiles superior to DL0805 | 24 fold | comparable vasorelaxant activity to the approved drug fasudil | 
